Assay results reported in patent publication EP4353225A1, “NUTRACEUTICAL OR PHARMACEUTICAL COMPOSITION FOR THE TREATMENT OF PELVIC PAIN” (Erbozeta S.p.A., priority 2022, dated 2024).

What was measured:
[1] = tested on: IL-6; assay: ELISA of IL-6 in T24 bladder urothelium cells exposed to THP-1 conditioned media; type: cell-based, human; settings: T24 cells 4 h
Method: (§1) Based on the results of the cytotoxicity experiments, the medium conditioned on THP-1 to be used to study the possible anti-inflammatory activity on the bladder urothelium was obtained by exposing for 2 h the differentiated THP-1 cells to the concentrations of the three functional ingredients and the MIX corresponding to 600, 400, 200, 100, 50 and 25 µg/mL for the MICRONIZED PEA, 15, 10, 5, 2.5, 1.25, 0.625 µg/mL for the DRY MARITIME PINE EXTRACT, 75, 50, 25, 12.5, 6.25, 3.125 µg/mL for HEMP OIL and 690, 460, 230, 115, 57.5 and 28.75 µg/mL for the MIX, respectively. At the end of this incubation, the cells were treated for a further 6 h with the inflammatory stimulus E. coli in the presence of the different treatments. Cells exposed only with the inflammatory stimulus in the absence of pre-treatment were used as a positive control of inflammation.
(§2) The specific anti-inflammatory activity on the bladder urothelium of the three functional ingredients and the MIX was evaluated on an in vitro bladder urothelium epithelium composed of the T24 cell line (ATCC HTB-4TM). T24 cells were exposed for 4 h to conditioned media obtained by treating THP-1 cells differentiated into macrophages with different concentrations of the functional ingredients and MIX, and in the presence of E. coli. At the end of treatment, T24 cells were detached with trypsin, centrifuged, and lysed by sonication in lysis buffer. The supernatant obtained following centrifugation at 10,000 g for 10 min at 4 °C was stored at -80 °C. An extended analysis of the impact of functional ingredients and MIX on inflammation was performed using an assay for the determination of the transcription factor Nf-kB (Abcam) and the evaluation of the expression of pro-inflammatory cytokines with an array of 23 human cytokines (Raybiotech), following the manufacturer's instructions. The cytokines interleukin 1β (IL-1β), interleukin 6 (IL-6), and interleukin 8 (IL-8) were quantified by ELISA assay.
(§3) The results are reported expressed as fold change, calculated as the ratio between the values obtained from the respective treatments on the control of inflammation. As such, the fold change is adimensional.

[2] = tested on: IL-8; assay: ELISA of IL-8 in T24 bladder urothelium cells exposed to THP-1 conditioned media; type: cell-based, human; settings: T24 cells 4 h
Method: as §1, §2, §3

[3] = tested on: GRO alpha; assay: Cytokine array (23 human cytokines) in T24 bladder urothelium cells exposed to THP-1 conditioned media: GRO alpha; type: cell-based; settings: T24 cells 4 h
Method: as §1, §2, §3

[4] = tested on: GRO a/b/g; assay: Cytokine array (23 human cytokines) in T24 bladder urothelium cells exposed to THP-1 conditioned media: GRO a/b/g; type: cell-based; settings: T24 cells 4 h
Method: as §1, §2, §3

[5] = tested on: THP-1 differentiated into macrophages; assay: Cytotoxicity / cell viability of differentiated THP-1 in the presence of E. coli (ATP assay); type: cell-based; settings: 2 h pre-treatment + 6 h E. coli
Method: Human THP-1 monocytes (ATCC® TIB-202TM) were maintained in THP-1 complete medium (THP-1 CCM) and cultured in a controlled atmosphere at 37 °C. Differentiation into macrophages was induced by incubation with phorbol myristate acetate (PMA) for 24 h. The culture medium was then replaced and the cells left with fresh medium for another 24 h before being exposed to the three functional ingredients, their MIX and the inflammatory stimulus, E. coli.
The cytotoxicity of the three functional ingredients and their MIX was evaluated on a THP-1 immune system model differentiated into macrophages. Based on the method of intake of the formulation, a digestion volume of 2 liters was considered in order to mimic as much as possible the physiological condition of the average volume of liquid contained in the stomach during the digestive process. Cytotoxicity was carried out by constructing a dose-response curve at increasing concentrations of the individual functional ingredients and the MIX in order to identify the maximum concentration usable for subsequent tests. The following concentrations were therefore tested on THP-1: from 50 µg/mL to 600 µg/mL for PEA, from 1.25 µg/mL to 15 µg/mL for DRY MARITIME PINE EXTRACT, from 6.25 µg/mL to 75 µg/mL for HEMP OIL and from 57.5 µg/mL to 690 µg/mL for the MIX. Based on the results of the dose-response curves, cell viability analysis was not performed at higher concentrations due to mortality caused by the mixture at the highest concentration tested. The concentrations used for subsequent experiments were selected in this concentration range. The three functional ingredients and the MIX were dissolved in THP-1 CCM in the absence of antibiotic and in the presence of 1.18 mg/mL of bile as surfactant. The suspensions were incubated under stirring overnight to increase the passage of the functional ingredients into solution and, the following day, the THP-1 cells were washed with Hank's Balanced Salt Solution (HBSS) and pre-treated for 2 h with the different concentrations of the individual functional ingredients and the MIX. At the end of this incubation, the pro-inflammatory stimulus E. coli (1 × 10^6 CFU/mL) was added to the treated cells for a further 6 h. Cells treated only with E. coli were used as a negative control, while cells treated with 10 µM staurosporine were used as a positive cell death control. At the end of the 8 h of treatment, cell viability was assessed by ATP assay (PerkinElmer) to avoid any possible interference from the bacteria present that may occur using other tests such as MTS.

[6] = tested on: transcription factor Nf-kB; assay: Nuclear levels of transcription factor Nf-kB in T24 bladder urothelium cells exposed to THP-1 conditioned media; type: cell-based, human; settings: T24 cells 4 h
Method: as §1, §2, §3

[7] = tested on: IL-1β; assay: ELISA of IL-1β in T24 bladder urothelium cells exposed to THP-1 conditioned media; type: cell-based, human; settings: T24 cells 4 h
Method: as §1, §2, §3

[8] = tested on: GM-CSF; assay: Cytokine array (23 human cytokines) in T24 bladder urothelium cells exposed to THP-1 conditioned media: GM-CSF; type: cell-based; settings: T24 cells 4 h
Method: as §1, §2, §3

[9] = Condition 1: MICRONIZED PEA 600, MARITIME PINE EXTRACT 15, HEMP OIL 75, MIX 690 µg/mL (1200, 30, 150, 1380 mg)
[10] = Condition 2: MICRONIZED PEA 400, MARITIME PINE EXTRACT 10, HEMP OIL 50, MIX 460 µg/mL (800, 20, 100, 920 mg)
[11] = Condition 3: MICRONIZED PEA 200, MARITIME PINE EXTRACT 5, HEMP OIL 25, MIX 230 µg/mL (400, 10, 50, 460 mg)
[12] = Condition 4: MICRONIZED PEA 100, MARITIME PINE EXTRACT 2.5, HEMP OIL 12.5, MIX 115 µg/mL (200, 5, 25, 230 mg)
[13] = Condition 5: MICRONIZED PEA 50, MARITIME PINE EXTRACT 1.25, HEMP OIL 6.25, MIX 57.5 µg/mL (100, 2.5, 12.5, 115 mg)
[14] = Condition 6: MICRONIZED PEA 25, MARITIME PINE EXTRACT 0.625, HEMP OIL 3.125, MIX 28.75 µg/mL (50, 1.25, 6.25, 57.5 mg)

SMILES: CCCCCCCCCCCCCCCC(=O)NCCO [MICRONIZED PEA, palmitoylethanolamide]
- IL-6 (Fold change vs Control) Average [1, 9]: 0.48 Fold change
- IL-6 (Fold change vs Control) Average [1, 10]: 0.34 Fold change
- IL-6 (Fold change vs Control) Average [1, 11]: 0.34 Fold change
- IL-6 (Fold change vs Control) Average [1, 12]: 0.33 Fold change
- IL-6 (Fold change vs Control) Average [1, 13]: 0.38 Fold change
- IL-6 (Fold change vs Control) Average [1, 14]: 0.45 Fold change
- IL-8 (Fold change vs Control) Average [2, 9]: 0.55 Fold change
- IL-8 (Fold change vs Control) Average [2, 10]: 0.49 Fold change
- IL-8 (Fold change vs Control) Average [2, 11]: 0.51 Fold change
- IL-8 (Fold change vs Control) Average [2, 12]: 0.54 Fold change
- IL-8 (Fold change vs Control) Average [2, 13]: 0.68 Fold change
- IL-8 (Fold change vs Control) Average [2, 14]: 0.69 Fold change
- GRO alpha (Fold change vs Control) Average [3, 9]: 1.49 Fold change
- GRO alpha (Fold change vs Control) Average [3, 10]: 0.79 Fold change
- GRO alpha (Fold change vs Control) Average [3, 11]: 1.28 Fold change
- GRO alpha (Fold change vs Control) Average [3, 12]: 1.23 Fold change
- GRO alpha (Fold change vs Control) Average [3, 13]: 0.91 Fold change
- GRO alpha (Fold change vs Control) Average [3, 14]: 1.17 Fold change
- GRO a/b/g (Fold change vs Control) Average [4, 9]: 1.14 Fold change
- GRO a/b/g (Fold change vs Control) Average [4, 10]: 0.92 Fold change
- GRO a/b/g (Fold change vs Control) Average [4, 11]: 0.81 Fold change
- GRO a/b/g (Fold change vs Control) Average [4, 12]: 0.58 Fold change
- GRO a/b/g (Fold change vs Control) Average [4, 13]: 1 Fold change
- GRO a/b/g (Fold change vs Control) Average [4, 14]: 1.13 Fold change
- Viability ([5]; MICRONIZED PEA 50 µg/mL (100 mg)): 73.2 ± 9.5%
- Viability ([5]; MICRONIZED PEA 100 µg/mL (200 mg)): 106.5 ± 5.6%
- Viability ([5]; MICRONIZED PEA 300 µg/mL (600 mg)): 86.5 ± 5.9%
- Viability ([5]; MICRONIZED PEA 500 µg/mL (1000 mg)): 71.9 ± 1.3%
- Viability ([5]; MICRONIZED PEA 600 µg/mL (1200 mg)): 73.9 ± 19.5%
- Nf-kB (Fold change vs Control) Average [6, 9]: 2.89 Fold change
- Nf-kB (Fold change vs Control) Average [6, 10]: 6.16 Fold change
- Nf-kB (Fold change vs Control) Average [6, 11]: 0.12 Fold change
- Nf-kB (Fold change vs Control) Average [6, 12]: 0.75 Fold change
- Nf-kB (Fold change vs Control) Average [6, 13]: 0.57 Fold change
- Nf-kB (Fold change vs Control) Average [6, 14]: 0.43 Fold change
- Nf-kB levels (nuclear translocation) ([6]; result in words, over the concentrations tested): reduces the nuclear translocation of the transcription factor NF-κB starting from 25 µg/mL (50 mg) up to 200 µg/mL (400 mg)
- IL-1β (Fold change vs Control) Average [7, 9]: 0.14 Fold change
- IL-1β (Fold change vs Control) Average [7, 10]: 0.25 Fold change
- IL-1β (Fold change vs Control) Average [7, 11]: 0.15 Fold change
- IL-1β (Fold change vs Control) Average [7, 12]: 0.25 Fold change
- IL-1β (Fold change vs Control) Average [7, 13]: 0.30 Fold change
- IL-1β (Fold change vs Control) Average [7, 14]: 0.30 Fold change
- GM-CSF fold change vs control [8, 9]: 1.01 Fold change
- GM-CSF fold change vs control [8, 10]: 1.1 Fold change
- GM-CSF fold change vs control [8, 11]: 0.9 Fold change
- GM-CSF fold change vs control [8, 12]: 0.21 Fold change
- GM-CSF fold change vs control [8, 13]: 1.15 Fold change
- GM-CSF fold change vs control [8, 14]: 1.19 Fold change
